Data reported in PubChem BioAssay (NCI).
Where “and” joins values, the source holds several entries; their conditions need not be identical. Equal values may be shown once.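 Method: 48-hour compound exposure of cells in 96-well plates, five concentrations, linear interpolation of endpoints. Abbreviation: GI50, concentration required for 50% inhibition of growth. The concentration for full growth arrest is given as TGI.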

Columns and labels:
Assay in all cases: DTP human tumour cell line panel, 48 h
MDA-MB-231 breast = test system: MDA-MB-231 breast
K-562 leukemia = test system: K-562 leukemia
UO-31 renal = test system: UO-31 renal
SNB-19 CNS = test system: SNB-19 CNS
OVCAR-8 ovarian = test system: OVCAR-8 ovarian
EKVX NSCLC = test system: EKVX NSCLC
DU-145 prostate = test system: DU-145 prostate
NCI-H23 lung = test system: NCI-H23 lung
HCT-15 colon = test system: HCT-15 colon
M14 melanoma = test system: M14 melanoma

## O=C1/C(=C/c2ccc(O)c([N+](=O)[O-])c2)CCC/C1=C\c1ccc(O)c([N+](=O)[O-])c1
MDA-MB-231 breast
  GI50: 16.4 µM
  TGI: 50 µM and 39.3 µM
K-562 leukemia
  GI50: 20.9 µM
  TGI: 50 µM and 64.4 µM
UO-31 renal
  GI50: 20.7 µM
  TGI: 25.5 µM and 39.5 µM
SNB-19 CNS
  GI50: 17.1 µM
  TGI: 28.7 µM and 35.2 µM
OVCAR-8 ovarian
  GI50: 16 µM
  TGI: 50 µM and 34.7 µM
EKVX NSCLC
  GI50: 15 µM
  TGI: 50 µM and 28.8 µM
DU-145 prostate
  GI50: 2.99 µM
  TGI: 20.3 µM and 15.3 µM
NCI-H23 lung
  GI50: 8.14 µM
  TGI: 32.6 µM and 25.2 µM
HCT-15 colon
  GI50: 9.77 µM
  TGI: 36.5 µM and 37.2 µM
M14 melanoma
  GI50: 14.6 µM
  TGI: 31.8 µM and 29.7 µM

## c1cc2c(cc1C(N1CCNCC1)N1CCNCC1)OCO2
MDA-MB-231 breast
  TGI: > 100 µM
K-562 leukemia
  TGI: 5.6 µM
UO-31 renal
  TGI: > 100 µM
SNB-19 CNS
  TGI: > 100 µM
OVCAR-8 ovarian
  TGI: > 100 µM
EKVX NSCLC
  TGI: > 100 µM
DU-145 prostate
  TGI: > 100 µM
NCI-H23 lung
  TGI: > 100 µM
HCT-15 colon
  TGI: > 100 µM
M14 melanoma
  TGI: > 100 µM

## FC(F)(F)c1cccc(COCCN2CCN(Cc3cccc(C(F)(F)F)c3)CC2)c1
MDA-MB-231 breast
  TGI: 44.7 µM
K-562 leukemia
  TGI: > 100 µM
UO-31 renal
  TGI: 24.9 µM
SNB-19 CNS
  TGI: 29.4 µM
OVCAR-8 ovarian
  TGI: 41.2 µM
EKVX NSCLC
  TGI: 23.4 µM
DU-145 prostate
  TGI: 32.4 µM
NCI-H23 lung
  TGI: 41.1 µM
HCT-15 colon
  TGI: 31.5 µM
M14 melanoma
  TGI: 94.6 µM

## CC([C@H]1CCC2C3CCC4C[C@@H](NC=O)CC[C@]4(C)C3CC[C@@]21C)N(C)C (stereo not given in full)
MDA-MB-231 breast
  GI50: 2.38 µM
  TGI: 5.89 µM
K-562 leukemia
  GI50: 0.862 µM
  TGI: 3.18 µM
UO-31 renal
  GI50: 1.49 µM
  TGI: 3.12 µM
SNB-19 CNS
  GI50: 7.08 µM
  TGI: 19.5 µM
OVCAR-8 ovarian
  GI50: 6.48 µM
  TGI: > 46.4 µM
EKVX NSCLC
  GI50: 2.64 µM
  TGI: 19.1 µM
DU-145 prostate
  GI50: 4.84 µM
  TGI: 17.5 µM
NCI-H23 lung
  GI50: 4.73 µM
  TGI: 19 µM
HCT-15 colon
  GI50: 1.56 µM
  TGI: 4.66 µM
M14 melanoma
  GI50: 1.87 µM
  TGI: 3.55 µM

## CC1(C)OC[C@@H]([C@@]2(CO[Si](C)(C)C(C)(C)C)CC=CC(=O)O2)O1
MDA-MB-231 breast
  GI50: 27.2 µM
  TGI: 59.9 µM
K-562 leukemia
  GI50: 26.7 µM
  TGI: > 100 µM
UO-31 renal
  GI50: 19.2 µM
  TGI: 42.2 µM
SNB-19 CNS
  GI50: 22.7 µM
  TGI: 68.9 µM
OVCAR-8 ovarian
  GI50: 33.9 µM
  TGI: > 100 µM
EKVX NSCLC
  GI50: 26.9 µM
  TGI: 63.3 µM
DU-145 prostate
  GI50: 18.7 µM
  TGI: 40.9 µM
HCT-15 colon
  GI50: 34.7 µM
  TGI: > 100 µM
M14 melanoma
  GI50: 20.9 µM
  TGI: 50.7 µM

## COc1cc(Cl)cc(-c2nn(C(=O)NCCN3CCN(C)CC3)cc2-c2ccncc2)c1
MDA-MB-231 breast
  GI50: 9.7 µM
  TGI: 43.5 µM
K-562 leukemia
  GI50: 28.5 µM
  TGI: > 100 µM
UO-31 renal
  GI50: 11.6 µM
  TGI: 62 µM
SNB-19 CNS
  GI50: 7.93 µM
  TGI: > 100 µM
OVCAR-8 ovarian
  GI50: 2.94 µM
  TGI: > 100 µM
EKVX NSCLC
  GI50: 0.971 µM
  TGI: 37.1 µM
DU-145 prostate
  GI50: 12.3 µM
  TGI: 66.5 µM
NCI-H23 lung
  GI50: 20.1 µM
  TGI: 82 µM
HCT-15 colon
  GI50: 17.2 µM
  TGI: 69.9 µM
M14 melanoma
  GI50: 9.46 µM
  TGI: 29.3 µM

## COC(=O)NC/C=C\c1nc(CC/C=C\C(=O)OC2CC3CC(=O)O[C@H](/C=C/CC(C)C)C[C@H]4CCC(C)C(C[C@H](OC)CC(C2)O3)O4)co1 (stereo not given in full)
MDA-MB-231 breast
  GI50: 11.3 µM
  TGI: > 100 µM
K-562 leukemia
  GI50: < 0.01 µM
  TGI: 20.3 µM
UO-31 renal
  GI50: 25.4 µM
  TGI: > 100 µM
SNB-19 CNS
  GI50: 23 µM
  TGI: > 100 µM
OVCAR-8 ovarian
  GI50: > 100 µM
  TGI: > 100 µM
EKVX NSCLC
  GI50: < 0.01 µM
  TGI: 4.8 µM
DU-145 prostate
  GI50: 1.54 µM
  TGI: > 100 µM
M14 melanoma
  GI50: 4.27 µM
  TGI: > 100 µM

## O=[N+]([O-])c1ccc(-c2nc(N(CCO)CCO)c3ccccc3n2)o1
MDA-MB-231 breast
  GI50: 1.08 µM
  TGI: 4.25 µM
K-562 leukemia
  GI50: 0.337 µM
  TGI: > 20.6 µM
UO-31 renal
  GI50: 0.213 µM
  TGI: 0.714 µM
SNB-19 CNS
  GI50: 0.229 µM
  TGI: 1.41 µM
OVCAR-8 ovarian
  GI50: 0.262 µM
  TGI: 2.88 µM
EKVX NSCLC
  GI50: 0.464 µM
  TGI: 4.31 µM
DU-145 prostate
  GI50: 0.0352 µM
  TGI: 0.303 µM
NCI-H23 lung
  GI50: 0.1 µM
  TGI: 0.314 µM
HCT-15 colon
  GI50: 0.176 µM
  TGI: 1.71 µM
M14 melanoma
  GI50: 0.143 µM
  TGI: 0.316 µM

## OC(C1=C/C(=C\c2ccncc2)c2ccccc21)c1ccncc1 (stereo not given)
MDA-MB-231 breast
  TGI: 23.4 µM
K-562 leukemia
  TGI: 28.1 µM
UO-31 renal
  TGI: 28.2 µM
SNB-19 CNS
  TGI: 69.2 µM
OVCAR-8 ovarian
  TGI: > 100 µM
EKVX NSCLC
  TGI: 41.5 µM
DU-145 prostate
  TGI: 62.2 µM
NCI-H23 lung
  TGI: 39.2 µM
HCT-15 colon
  TGI: > 63.5 µM
M14 melanoma
  TGI: 27.8 µM

## N#CC1=C(N)N=C(N2CCCCC2)C(C#N)C12Nc1ccccc1S2 (stereo not given)
MDA-MB-231 breast
  GI50: 17.1 µM
  TGI: 58.7 µM
K-562 leukemia
  GI50: > 100 µM
  TGI: > 100 µM
UO-31 renal
  GI50: 40.8 µM
  TGI: > 100 µM
SNB-19 CNS
  GI50: 41 µM
  TGI: > 100 µM
OVCAR-8 ovarian
  GI50: 38.3 µM
  TGI: > 100 µM
EKVX NSCLC
  GI50: 28.7 µM
  TGI: 91.1 µM
DU-145 prostate
  GI50: 43 µM
  TGI: > 100 µM
NCI-H23 lung
  GI50: 16.7 µM
  TGI: 52.8 µM
HCT-15 colon
  GI50: 22 µM
  TGI: > 100 µM
M14 melanoma
  GI50: 19.1 µM
  TGI: 46.8 µM

## COc1ccc(/C=C\c2cc(OC)c(OC)c(OC)c2)cc1OC(=O)C(N)CCC(=O)O (stereo not given)
MDA-MB-231 breast
  GI50: 0.00211 µM and 0.00795 µM
K-562 leukemia
  GI50: 0.000311 µM and 7.02e-05 µM
UO-31 renal
  GI50: 0.000436 µM and < 0.0001 µM
SNB-19 CNS
  GI50: 0.000828 µM and 0.000281 µM and < 0.0001 µM
  TGI: > 100 µM
OVCAR-8 ovarian
  GI50: 0.000112 µM
EKVX NSCLC
  TGI: > 100 µM
DU-145 prostate
  GI50: 0.000364 µM and 0.000444 µM and < 0.0001 µM
NCI-H23 lung
  TGI: 0.000785 µM and 0.0056 µM
M14 melanoma
  GI50: 0.000565 µM

## C[C@@H]1O[C@@H](O[C@@H]2[C@@H](O)[C@H](OCCc3ccc(O)c(O)c3)O[C@H](COC(=O)/C=C/c3ccc(O)c(O)c3)[C@H]2O)[C@H](O)[C@H](O)[C@H]1O
MDA-MB-231 breast
  GI50: > 100 µM
  TGI: > 100 µM
K-562 leukemia
  GI50: 36.7 µM
  TGI: > 100 µM
UO-31 renal
  GI50: > 100 µM
  TGI: > 100 µM
SNB-19 CNS
  GI50: > 100 µM
  TGI: > 100 µM
EKVX NSCLC
  GI50: 36.3 µM
  TGI: > 100 µM
DU-145 prostate
  GI50: 32.6 µM
  TGI: > 100 µM
HCT-15 colon
  GI50: > 100 µM
  TGI: > 100 µM
M14 melanoma
  GI50: > 100 µM
  TGI: > 100 µM

## CCOC(=O)Cc1csc(/N=C2\NC(=O)/C(=C3\C(=O)N(C)c4ccccc43)S2)n1
MDA-MB-231 breast
  GI50: 37.4 µM
  TGI: > 100 µM
K-562 leukemia
  GI50: 36 µM
  TGI: > 100 µM
UO-31 renal
  GI50: 35.6 µM
  TGI: > 100 µM
SNB-19 CNS
  GI50: 52.5 µM
  TGI: > 100 µM
OVCAR-8 ovarian
  GI50: 65.3 µM
  TGI: > 100 µM
EKVX NSCLC
  GI50: 44.1 µM
  TGI: > 100 µM
DU-145 prostate
  GI50: 41.4 µM
  TGI: > 100 µM
NCI-H23 lung
  GI50: 48 µM
  TGI: > 100 µM
HCT-15 colon
  GI50: 39.7 µM
  TGI: > 100 µM

## Fc1ccc(Oc2nccc(-c3c(-c4ccc(F)cc4)ncn3C3CCNCC3)n2)cc1
MDA-MB-231 breast
  TGI: > 9.34 µM
K-562 leukemia
  GI50: > 25 µM
  TGI: > 25 µM
UO-31 renal
  GI50: 10.9 µM
  TGI: > 25 µM
SNB-19 CNS
  GI50: > 25 µM
  TGI: > 25 µM
OVCAR-8 ovarian
  GI50: > 25 µM
  TGI: > 25 µM
EKVX NSCLC
  GI50: > 25 µM
  TGI: > 25 µM
DU-145 prostate
  GI50: > 25 µM
  TGI: > 25 µM
HCT-15 colon
  GI50: > 25 µM
  TGI: > 25 µM
M14 melanoma
  GI50: > 25 µM
  TGI: > 25 µM
